From patent US20060094741A1, “Remedies for neuropathic pain and model animals of neuropathic pain” (Toray Industries, Inc., a corporation of Japan, priority 1999, published 2006)
Entries after “also recorded” stand apart in the source; their conditions may differ.

Tests used:
[1] = test system: pain-related behavior induced by intrathecal administration of Compound 1; test: Inhibition of tentative responses for nociception (scratching, biting, licking) induced by intrathecal Compound 1; type: in vivo, mouse
Description: (§1) Scratching, biting, and licking behavior was regarded as an index of tentative responses for nociception, and the duration of such behavior was measured for 5 minutes from 5 minutes after the administration of Compound 1 in a transparent acrylic cage (20×13×10 cm) in a single-blind manner.
(§2) Mice (ddY; weighing 22 to 25 g when the experiment was started) were kept in a plastic cage at a constant temperature and humidity (22±1° C., 55±5%) under a 12-hour light-dark cycle. The mice had free access to food and water.
Compound 1 was dissolved in a physiological saline solution (Ohtsuka Pharmaceutical Co., Ltd.) and was intrathecally administered to the mice without anesthetization. The intrathecal dose of the drug solution per mouse was 4 μl, and a 30 gauge needle and a 25 μl Hamilton syringe were used according to the method disclosed by Hylden and Wilcox (J. L. K. Hylden & G. L. Wilcox, Eur. J. Pharmacol., 67: 313-316, 1980).
(−)-17cyclopropyl-3,1 4β-dihydroxy-4,5α-epoxy-6β-[N-methyl-trans-3-(3-furyl) acrylamide] morphinan hydrochloride (Compound 2) (H. Nagase et al. Chem. Pharm. Bull. 46, 366, 1998), of which the formula is shown below, [drawing 14] as a selective opioid κ-receptor agonist compound, was intrathecally administered to the mice simultaneously with Compound 1, and the effect thereof on neuropathic pain was evaluated based on tentative responses for nociception, such as scratching, biting, and licking behavior, as indexes. The duration of such behavior was measured for 5 minutes from 5 minutes after the administration of the simultaneous administration of Compound 2 and Compound 1 (15 μg/mouse) in a transparent acrylic cage (20×13×10 cm) in a single-blind manner. Additionally, Compound 2 was dissolved in a physiological saline solution for use.
In order to determine the effect of the drug on neuropathic pain, tentative responses for nociception were tested in the case in which a low dose of 1 or 3 nmol/mouse of Compound 2 was intrathecally administered simultaneously with Compound 1 in a manner similar to that of Example 2 and in the case in which Compound 2 was subcutaneously administered so that systemic exposure to the drug was evaluated. […] Since the effectiveness of Compound 2 has also been shown in systemic exposure, it has become clear that Compound 2 is effective even if the drug is not administered topically, that is, even if the drug is administered in various dosage forms which are pharmacologically acceptable.

[2] = test system: mice (ddY); test: Production of the neuropathic pain animal model: scratching, biting and licking behavior after intrathecal Compound 1; type: in vivo; conditions: 7.5 μg/mouse or more, measured for 5 minutes from 5 minutes after administration
Description: as §2
(+)-4a-(3-hydroxyphenyl)-2-methyl-1,2,3,4,4a, 5,12,12a-octahydrotrans-quinolino [2,3-g]isoquinoline (Compound 1) was dissolved in a physiological saline solution (Ohtsuka Pharmaceutical Co., Ltd.) and was intrathecally administered to the mice without anesthetization. The intrathecal dose of the drug solution per mouse was 4 μl, and a 30 gauge needle and a 25 μl Hamilton syringe were used according to the method disclosed by Hylden and Wilcox (J. L. K. Hylden & G. L. Wilcox, Eur. J. Pharmacol., 67: 313-316, 1980).
as §1

[3] = test system: sciatic nerve ligation mouse model; test: Sciatic nerve ligation mouse model, allodynia/hyperalgesia by von Frey hairs; type: in vivo; conditions: subcutaneous
Source text: The action of Compound 2 in inhibiting neuropathic pain was investigated using another, widely known neuropathic pain model. That is, the action of Compound 2 in a sciatic nerve ligation mouse model was investigated using a method in which the method disclosed by A. B. Malmberg and A. I. Basbaum (Pain, 76, 215-222, 1998) et al. was slightly modified. In order to measure allodynia or hyperalgesia generally observed in neuropathic pain, two von Frey hairs (0.17 and 1.48 g) having different strengths were used. Four weeks following the surgery, the mice were placed in an acrylic cage (90×100×300 mm) and allowed to acclimate for a minimum of 30 minutes. The von Frey hairs were applied perpendicularly to the soles of the hind feet so as to cause slight bending for a duration of approximately 3 seconds. This was repeated 6 times at intervals of several seconds. The reaction of the mouse was given a score in the manner described below.
2: Immediate escape reaction and flinching of hind paw
The reactions of the surgically operated foot and the opposite foot as control were measured before the administration of the drug, and 30 minutes and 2 hours after the administration of the drug. The difference between the score of the surgically operated foot and the score of the control foot was evaluated as allodynia or hyperalgesia. […]

[4] = test system: pain associated with zosteriform skin lesions; test: Herpetic pain model, allodynia/hyperalgesia associated with zosteriform skin lesions; type: in vivo; conditions: orally administered; thirty minutes after the administration
Source text: The therapeutic effect of Compound 2 on pain associated with zoster classified under neuropathic pain was investigated. The evaluation of the therapeutic effect was made using an animal model produced according to a method disclosed in Pain, 86, 95-101, 2000.

[5] = simultaneous intrathecal administration with 15 μg/mouse of Compound 1

SMILES: NCC(CC(=O)O)c1ccc(Cl)cc1 (stereo not shown) [Baclofen, reference compound]
- inhibition of tentative responses for nociception induced by Compound 1 [1, 5]: inhibited dose-dependently

SMILES: CN1CC[C@@]2(c3cccc(O)c3)Cc3nc4ccccc4cc3C[C@@H]2C1 [Compound 1, (+)-4a-(3-hydroxyphenyl)-2-methyl-1,2,3,4,4a, 5,12,12a-octahydrotrans-quinolino [2,3-g]isoquinoline]
- tentative responses for nociception (duration of scratching, biting, and licking behavior) [2]: increased significantly and dose-dependently
- tentative responses for nociception (duration of scratching, biting, and licking behavior) ([2]; listed as Compound I): increases dose-dependently

SMILES: CN(C(=O)/C=C/c1ccoc1)[C@@H]1CC[C@@]2(O)[C@H]3Cc4ccc(O)c5c4[C@@]2(CCN3CC2CC2)[C@H]1O5.Cl [Compound 2, (−)-17cyclopropyl-3,1 4β-dihydroxy-4,5α-epoxy-6β-[N-methyl-trans-3-(3-furyl)acrylamide] morphinan hydrochloride]
- allodynia or hyperalgesia (difference between score of surgically operated foot and control foot) ([3]; after 2 hours): the effect of the drug disappeared
- allodynia or hyperalgesia (difference between score of surgically operated foot and control foot) ([3]; thirty minutes after the administration, von Frey hairs 0.17 and 1.48 g): inhibited allodynia or hyperalgesia
- inhibition of tentative responses for nociception induced by Compound 1 ([1]; 10 nmol/mouse intrathecal, simultaneously with Compound 1 (15 μg/mouse), compared to physiological saline solution-treated group): significantly inhibited
- inhibition of tentative responses for nociception induced by Compound 1 ([1]; low dose of 1 or 3 nmol/mouse intrathecal, simultaneously with Compound 1, hydrochloride): dose-dependent inhibitory action; also recorded: dose-dependently inhibited
- inhibition of tentative responses for nociception induced by Compound 1 ([1]; subcutaneously administered (systemic exposure), hydrochloride): dose-dependent inhibitory action; also recorded: dose-dependently inhibited
- allodynia or hyperalgesia associated with zosteriform skin lesions [4]: dose-dependently inhibited allodynia or hyperalgesia

SMILES: CN1CC[C@]23c4c5ccc(O)c4O[C@H]2[C@@H](O)C=C[C@H]3[C@H]1C5 [morphine, reference compound]
- inhibition of tentative responses for nociception induced by Compound 1 [1, 5]: not inhibited at all
